Laboratory results reported in article PMC8509773, “3-Pyridinylidene Derivatives of Chemically Modified Lupane and Ursane Triterpenes as Promising Anticancer Agents by Targeting Apoptosis” (International Journal of Molecular Sciences, 2021).

Assays:
[1] = set-up: method as in PMID 11527742, doi:10.1007/s00044-018-2189-6, PMID 32956968; conditions: literature data; cited from earlier work
[2] = system: NCI-60 cancer cell line panel; set-up: method as in PMID 33970717; conditions: earlier study; read-out: GI50 range against NCI-60; cited from earlier work
chorioallantoic membrane = experiment: HET-CAM irritation assay; conditions: in vivo
Text: HET-CAM assay was used in order to assess the toxicity of compounds 6 and 7 (Figure 16); the procedure is a low-cost, unique model in biomedical research that allows the testing of the irritation potency of chemical compounds while simultaneously avoiding in vivo experiments. […] The Luepke scale was used to establish the irritation score: 0–0.9 indicates non-irritant, 1–4.9 indicates weakly irritant, 5–8.9 indicates moderately irritant, and 9–21 means strongly irritant.
Compounds 6 and 7 were also evaluated in terms of biocompatibility on mucosal tissues by using the in vivo Hen’s Egg Chorioallantoic Membrane Test (HET-CAM assay). The assay assesses a potential irritant effect on the vascular plexus of the chorioallantoic membrane. The HET-CAM method was carried out following ICCVAM recommendations published in November 2016 in Appendix G and adapted to our laboratory conditions. Thus, 300 µL of control or test solution, respectively, was applied on CAM and the alterations induced at the CAM level were monitored by means of stereomicroscopy (Discovery 8 Stereomicroscope, Zeiss), registering significant images (Axio CAM 105 color, Zeiss), before the application and after 5 min contact with the samples. All images were processed using Zeiss ZEN software, Gimp 2.8 and ImageJ software. Negative control was represented by distilled water and solvent control DMSO 0.5%, while the positive control by the sodium lauryl sulphate (SLS) 0.5% in distillate water. The test substances were tested in concentrations of 1 µM. The observation time of the produced reactions was 5 min (300 s) and the time, at which the occurrence of a particular reaction took place was recorded in seconds. Finally, the following reactions were monitored: hemorrhage—H (blood vessel bleeding), vascular lysis —L (disintegration of blood vessels), and coagulation —C (intra or extra- vascular protein denaturizing). A variety of analysis methods may be used to assess irritancy potential of test substances. One analysis method that has been used extensively used is an irritation score (IS) calculated according to the following formula: IS=5×301−SecH/300+[…]/300+9×301−SecC/300 where H = hemorrhage; L = vessel lysis; C = coagulation; Hemorrhage time (Sec H) = onset of hemorrhage reactions on CAM (in sec); Lysis time (Sec L) = onset of vessel lysis on CAM (in sec); Coagulation time (Sec C) = onset of coagulation formation on CAM (in sec). The formula comprises a factor indicating the impact of the observed effect on vascular damage, e.g., coagulation has the highest impact expressed by the multiplication factor 9. The IS values range on a scale between 0 and 21.

Compound	GI50 [2] [nM]	other results
CC(=O)[C@@H]1CC[C@]2(C(=O)O)CC[C@]3(C)[C@H](CC[C@@H]4[C@@]5(C)CC[C@H](O)C(C)(C)[C@@H]5CC[C@]43C)[C@@H]12 [platanic acid]	–	GI50 [1]: > 50 µM
3-pyridinylidene-messagenin	1000 to 2000	–
2,30-bis-(3-pyridinylidene)-platanic acid	1000 to 2000	–
CCCCCCCCCCCCOS(=O)(=O)[O-].[Na+] [SLS 0.5%, sodium laurylsulphate, reference compound]	–	Type of Effect (chorioallantoic membrane): Strong irritant
